Experimental data from ChEMBL document CHEMBL3407468, “Novel 5-substituted pyrrolo[2,3-d]pyrimidines as dual inhibitors of glycinamide ribonucleotide formyltransferase and 5-aminoimidazole-4-carboxamide ribonucleotide formyltransferase and as potential antitumor agents” (J Med Chem, 2015).
Calls of active or inactive are those of the source. The calls are words filed in the database; no cut-off is given here.

Legend:
KB [1] = assay: Antiproliferative activity against human KB cells expressing RFC/FRalpha/PCFT after 96 hrs by CellTiter-Blue assay; type: functional, cell-based
KB [2] = assay: Antiproliferative activity against human KB cells expressing RFC/FRalpha/PCFT after 96 hrs by CellTiter-Blue assay in presence of 200 nM folic acid; type: functional, cell-based
[3] = Cytotoxicity against PCFT-deficient Chinese hamster R2(VC) cells assessed as growth inhibition after 96 hrs by CellTiter-Blue assay; type: cell-based; conditions: Cricetulus griseus
[4] = target: Bifunctional purine biosynthesis protein ATIC (Homo sapiens) (UniProt P31939); assay: Inhibition of AICARFTase in human KB cells expressing RFC/FRalpha/PCFT assessed as cell growth inhibition at 1 to 1000 nM after 96 hrs by CellTiter-Blue assay in presence of 320 uM AICA; type: cell-based
[5] = target: T1, GAR transformylase/AICAR transformylase (Homo sapiens) (UniProt P31939+P22102); conditions: KB, at 1 to 1000 nM
Description: Inhibition of GARFTase/AICARFTase in human KB cells expressing RFC/FRalpha/PCFT assessed as cell growth inhibition at 1 to 1000 nM after 96 hrs by CellTiter-Blue assay in presence of 10 uM thymidine

R2 = assay: Cytotoxicity against RFC-deficient Chinese hamster R2 cells assessed as growth inhibition after 96 hrs by CellTiter-Blue assay; type: cell-based; conditions: Cricetulus griseus, R2, 96 h
[6] = target: T1, GAR transformylase/AICAR transformylase (Homo sapiens); conditions: KB, at 1 to 1000 nM; remark: listed apart in the source
Description: Inhibition of GARFTase/AICARFTase in human KB cells expressing RFC/FRalpha/PCFT assessed as cell growth inhibition at 1 to 1000 nM after 96 hrs by CellTiter-Blue assay in presence of 60 uM adenosine

[7] = target: T2, Trifunctional purine biosynthetic protein adenosine-3 (Homo sapiens, UniProt P22102); assay: Inhibition of GARFTase in human KB cells expressing RFC/FRalpha/PCFT assessed as incorporation of [U-14C]-glycine into [14C]-formyl glycinamide ribonucleotide incubated for 1 hr followed by [U-14C]-glycine addition measured after 16 hrs; type: cell-based
T2 sequence (P22102 whole entry): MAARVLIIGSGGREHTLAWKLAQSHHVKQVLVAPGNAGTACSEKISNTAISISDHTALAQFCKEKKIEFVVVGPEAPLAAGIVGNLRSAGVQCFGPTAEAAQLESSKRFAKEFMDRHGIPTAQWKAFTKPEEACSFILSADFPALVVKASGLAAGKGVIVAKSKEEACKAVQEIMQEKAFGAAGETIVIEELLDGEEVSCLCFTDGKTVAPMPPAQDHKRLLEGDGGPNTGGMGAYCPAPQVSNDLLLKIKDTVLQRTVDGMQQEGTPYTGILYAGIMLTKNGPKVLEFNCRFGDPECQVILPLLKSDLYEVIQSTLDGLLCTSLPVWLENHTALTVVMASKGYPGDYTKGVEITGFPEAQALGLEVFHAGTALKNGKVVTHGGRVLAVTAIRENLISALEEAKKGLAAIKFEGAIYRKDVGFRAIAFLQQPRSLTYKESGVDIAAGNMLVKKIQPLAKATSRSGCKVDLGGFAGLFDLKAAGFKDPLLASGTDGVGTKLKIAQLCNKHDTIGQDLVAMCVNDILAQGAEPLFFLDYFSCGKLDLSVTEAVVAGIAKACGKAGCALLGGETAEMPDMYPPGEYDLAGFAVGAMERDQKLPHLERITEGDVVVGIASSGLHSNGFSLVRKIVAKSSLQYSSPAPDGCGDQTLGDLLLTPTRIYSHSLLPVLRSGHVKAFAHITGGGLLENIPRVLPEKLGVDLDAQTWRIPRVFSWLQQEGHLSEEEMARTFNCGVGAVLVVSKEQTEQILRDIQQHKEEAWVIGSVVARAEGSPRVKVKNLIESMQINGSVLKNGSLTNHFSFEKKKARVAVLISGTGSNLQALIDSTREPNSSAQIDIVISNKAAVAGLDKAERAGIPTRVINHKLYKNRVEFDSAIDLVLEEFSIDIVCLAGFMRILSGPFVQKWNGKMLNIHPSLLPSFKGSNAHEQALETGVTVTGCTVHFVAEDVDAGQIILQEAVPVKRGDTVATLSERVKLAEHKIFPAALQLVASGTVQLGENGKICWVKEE

T1 sequence (P31939 whole entry, looked up, one chain of several): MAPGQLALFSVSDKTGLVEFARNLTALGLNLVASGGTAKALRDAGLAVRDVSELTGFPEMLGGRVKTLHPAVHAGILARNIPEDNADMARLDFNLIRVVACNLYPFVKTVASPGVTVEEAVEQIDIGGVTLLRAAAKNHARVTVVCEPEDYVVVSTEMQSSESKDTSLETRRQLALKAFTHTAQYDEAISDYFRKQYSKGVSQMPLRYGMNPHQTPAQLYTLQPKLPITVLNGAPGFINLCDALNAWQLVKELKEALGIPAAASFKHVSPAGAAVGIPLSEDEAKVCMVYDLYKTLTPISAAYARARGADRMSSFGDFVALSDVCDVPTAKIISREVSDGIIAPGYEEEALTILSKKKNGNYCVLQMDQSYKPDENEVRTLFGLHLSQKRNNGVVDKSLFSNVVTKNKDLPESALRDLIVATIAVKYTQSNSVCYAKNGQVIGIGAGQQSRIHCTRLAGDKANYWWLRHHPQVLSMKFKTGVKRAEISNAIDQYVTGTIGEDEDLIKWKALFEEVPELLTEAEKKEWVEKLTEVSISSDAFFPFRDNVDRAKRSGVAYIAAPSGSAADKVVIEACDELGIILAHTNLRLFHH
Sequence of Bifunctional purine biosynthesis protein ATIC (Homo sapiens) (P31939 whole entry, looked up): as the sequence (P31939 whole entry, looked up, one chain of several) above

Structure (SMILES) | IC50 (KB [1]) [nM] | inhibition [4] | inhibition [5] | inhibition [6] | Activity (KB [2]) | IC50 [3] [nM] | IC50 (R2) [nM] | IC50 [7] [nM]
Nc1nc2[nH]cc(Cc3ccc(C(=O)N[C@@H](CCC(=O)O)C(=O)O)s3)c2c(=O)[nH]1 | > 1000 | – | – | – | – | > 1000 | > 1000 | –
Nc1nc2[nH]c(CCCCc3ccc(C(=O)N[C@@H](CCC(=O)O)C(=O)O)s3)cc2c(=O)[nH]1 | – | inactive | – | – | – | > 1000 | > 1000 | 3.13
Nc1nc2[nH]cc(CCCCCCc3ccc(C(=O)N[C@@H](CCC(=O)O)C(=O)O)s3)c2c(=O)[nH]1 | > 1000 | – | – | – | – | > 1000 | > 1000 | –

Continued, in another order:

IC50 (KB [1]) [nM] | inhibition [4] | inhibition [5] | inhibition [6] | Structure (SMILES) | Activity (KB [2]) | IC50 [3] [nM] | IC50 (R2) [nM] | IC50 [7] [nM]
41.7 | inactive | Active | inactive | Nc1nc2[nH]cc(CCCCCc3ccc(C(=O)N[C@@H](CCC(=O)O)C(=O)O)s3)c2c(=O)[nH]1 | inactive | > 1000 | > 1000 | –
211 | Active | Active | inactive | Nc1nc2[nH]cc(CCCc3ccc(C(=O)N[C@@H](CCC(=O)O)C(=O)O)s3)c2c(=O)[nH]1 | – | > 1000 | > 1000 | –
66 | Active | Active | inactive | Nc1nc2[nH]cc(CCCCc3ccc(C(=O)N[C@@H](CCC(=O)O)C(=O)O)s3)c2c(=O)[nH]1 | inactive | > 1000 | > 1000 | 61
875 | – | – | – | Nc1nc2[nH]cc(CCc3ccc(C(=O)N[C@@H](CCC(=O)O)C(=O)O)s3)c2c(=O)[nH]1 | – | > 1000 | > 1000 | –
